# Measured values taken from patent US9624278B2, “Protein complex comprising MCM8 and MCM9 proteins and their use” (CENTRE NATIONAL DE LA RECHERCHE SCIENTIFIQUE, priority 2011, dated 2017).
# Assays:
# Type in all cases: cell-based, mouse
# WT MEF cells = assay: BrdU incorporation and growth of WT MEF cells treated 24 h with aphidicolin and released
# Description: (§1) In Xenopus egg extracts, MCM8 and 9 were found essential for efficient DNA replication^4 5. However, in in-vitro systems derived from Xenopus eggs, DNA replication efficiency is at its maximum, as all potential DNA replication origins are activated, leading to an unusual short inter-origin space and an accelerated S phase (less than 20 min). A deficiency in DNA replication could be therefore rapidly detected. In somatic cells, S phase stands for 6-10 hrs, including during mouse early development (Wowlett and Bolton, 1985), J. Embryol. Exp. Morph, 87, 175; Ferreira and Carmon Forseca, 1997, J. Cell Sci, 11, 889). Therefore, defects in DNA replication can be compensated by induction of the store of dormant origins and/or a higher rate of replication. To investigate this possibility, and reveal possible DNA replication weaknesses in KO MEFs the Inventors first performed DNA fiber stretching^24, using a double pulse-labeling method, applying first a CldU pulse (“red” pulse), followed a second IdU pulse (“green” pulse), as in FIG. 29. Replication fork arrests can be detected by measuring the length of the second pulse, which becomes shorter if the fork is blocked or slowing down. […] To reveal whether MCM9 KO cells were more sensitive to replication stress, the Inventors treated MEF cells for 24 hrs with low concentration (1 μM) of aphidicolin (APH), an inhibitor of DNA polymerases that slows down or blocks replication forks. First, the Inventors quantified the global efficiency of DNA replication by measuring the proportion of cells incorporating BrdU. […] The Inventors concluded that KO cells were highly sensitive to replication fork inhibition. When cells were further released from APH treatment, control cells re-establish the original BrdU-intensity within the first 3 hours (FIG. 30, FIGS. 31A-T). […] The Inventors conclude that MCM9 KO cells are highly sensitive to replication stress, and unable to rescue arrested forks, resulting in growth arrest. […]
# MCM9-deficient MEF cells = assay: BrdU incorporation and growth of MCM9-deficient MEF cells treated 24 h with aphidicolin and released
# Description: as §1
# MCM9 and MCM8 = assay: Western blot of WT MEF cells exposed for 24 h to APH; details: WT MEFs treated by APH
# Description: FIG. 34B represents a western blot analysis of WT-(lanes A and C) and MCM9-deficient-(lanes B and D) MEF cells exposed (lanes C and D) or not (lanes A and B) for 24 h to APH for MCM9 (panel 1), MCM8 (panel 2), Chk1-P (panel 3), Chk2 (panel 4) and GAPDH (panel 5) as loading control. […] Rad51 is an essential protein of the homologous recombination pathway that is the main repair mechanisms of DSBs caused by replication fork arrest^25,12. […] For chromatin isolation, MEF cells were harvested, washed with PBS, frozen at −80° C. or directly lysed in CSK buffer (150 mM NaCl, 10 mM HEPES pH 7.5, 300 mM Sucrose, 1 mM MgCl2, 1 mM EDTA, 1 mM ATP.MgCl2, 1 mM DTT, 0.2% Triton X-100, Phosphatase-inhibitors (Calbiochem), protease-inhibitors Leupeptin, Aprotinin and Pepstatin at a concentration of 10 μg/ml) for 10 min on ice in a volume of 1 μl buffer for 2000 cells. For whole cell extract (“WCE”), a sample of the lysate was mixed with two times Laemli SDS buffer and boiled. The lysate was centrifuged at 3′800 g for 5 min at 4° C., the pellet homogenized again in CSK buffer, extracted again for 5 min on ice and centrifuged again and finally solubilized in two times Laemli SDS buffer (1 μl buffer for 5000 cells).
structure (smiles),measurement,setting,value
"C[C@@]1(CO)[C@H](O)CC[C@@]2(C)[C@H]1CC[C@H]1C[C@@H]3C[C@@]12CC[C@]3(O)CO [APH, aphidicolin]",BrdU signal in nuclei after the APH treatment,"WT MEF cells; WT MEF cells, 1 μM aphidicolin, 24 hrs",strongly reduced
same,cell growth after the release from APH,"WT MEF cells; WT MEF cells, 24 h APH then released without drug",resumed growth soon
same,time to re-establish the original BrdU-intensity after release from APH,"WT MEF cells; control (WT) MEF cells, released from 24 h APH treatment",≤ 3 h
same,cell growth after the release from APH,"MCM9-deficient MEF cells; MCM9- (as well as MCM8-) KO MEF cells, 24 h APH then released without drug",died or stopped dividing
same,BrdU-labeled nuclei after the APH treatment,"MCM9-deficient MEF cells; MCM9-deficient MEF cells, 1 μM aphidicolin, 24 hrs",nearly no BrdU-labeled nuclei
same,time until percentage of BrdU-positive cells comparable to before the APH treatment,"MCM9-deficient MEF cells; surviving MCM9-deficient KO MEF cells, released from 24 h APH treatment",48 h
same,expression of MCM9 and MCM8 at the protein level,MCM9 and MCM8,stronger expression
